For experiment [1], the target named is T1, IBA57 Putative transferase CAF17 (Q5T440) (Homo sapiens, UniProt Q5T440).
T1 construct: shared by both the endogenous and recombinant forms of these proteins; endogenous in cells; host or cells: HEK293T and MDA-MB-231
T1 sequence (Q5T440 40-356): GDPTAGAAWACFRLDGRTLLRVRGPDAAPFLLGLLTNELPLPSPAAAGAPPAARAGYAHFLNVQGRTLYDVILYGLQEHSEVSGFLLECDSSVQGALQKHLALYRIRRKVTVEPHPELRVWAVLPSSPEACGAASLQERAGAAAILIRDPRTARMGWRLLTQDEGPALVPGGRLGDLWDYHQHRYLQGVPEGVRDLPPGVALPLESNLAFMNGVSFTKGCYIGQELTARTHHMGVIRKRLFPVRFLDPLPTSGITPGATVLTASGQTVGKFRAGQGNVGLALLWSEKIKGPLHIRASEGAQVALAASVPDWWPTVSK
As to the kind of experiment: SILAC RP-ABPP. The class given is cell-based. Particulars: SILAC H/L, HEK293T.

Experiment [2] concerns the target T2, PLOD1 Procollagenlysine, 2oxoglutarate (Q02809) (Homo sapiens, UniProt Q02809).
T2 construct: In Situ Labelling of Cells with Hydrazine Probes for MS Experiments; endogenous in cells
T2 sequence (Q02809 19-727): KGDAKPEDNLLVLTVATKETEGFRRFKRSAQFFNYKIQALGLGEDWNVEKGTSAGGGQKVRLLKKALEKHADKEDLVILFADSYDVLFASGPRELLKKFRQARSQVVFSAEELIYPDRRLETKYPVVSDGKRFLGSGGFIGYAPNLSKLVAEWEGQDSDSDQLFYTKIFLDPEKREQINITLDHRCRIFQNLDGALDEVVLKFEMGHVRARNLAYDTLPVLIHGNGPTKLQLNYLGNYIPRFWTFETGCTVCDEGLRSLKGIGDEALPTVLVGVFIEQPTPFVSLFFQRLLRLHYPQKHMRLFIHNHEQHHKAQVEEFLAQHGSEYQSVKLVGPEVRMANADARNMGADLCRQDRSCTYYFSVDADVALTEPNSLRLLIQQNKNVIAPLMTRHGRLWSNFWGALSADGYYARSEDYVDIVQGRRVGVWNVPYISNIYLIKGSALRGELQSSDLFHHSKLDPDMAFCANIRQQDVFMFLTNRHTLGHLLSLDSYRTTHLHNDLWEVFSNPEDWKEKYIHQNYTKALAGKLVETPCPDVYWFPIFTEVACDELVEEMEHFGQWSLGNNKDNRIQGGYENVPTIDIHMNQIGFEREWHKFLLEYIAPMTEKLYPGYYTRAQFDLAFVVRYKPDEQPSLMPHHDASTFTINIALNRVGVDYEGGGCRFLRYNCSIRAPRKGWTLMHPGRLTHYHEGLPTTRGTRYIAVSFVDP
As to the kind of experiment: SILAC RP-ABPP. Conditions: SILAC H/L, MDA-MB-231. It counts as cell-based.

On to `C#CCNN.Cl` [probe 1, prop-2-yn-1-ylhydrazine hydrochloride], for which the enrichment ratioavg in experiment [1] (probe 1 3 mM 0.5 h vs probe 3) amounted to 14; in experiment [2] (probe 1 3 mM 0.5 h vs probe 3), 6. The competition ratioavg in experiment [1] (probe 1 vs probe 1+10x probe 3) and in experiment [2] (probe 1 vs probe 1+10x probe 3) was 3 in each case.

Take `C#CCCNC(=O)c1ccc(NN)cc1.Cl` [probe 2, N-(but-3-yn-1-yl)-4-hydrazinylbenzamide hydrochloride]: the enrichment ratioavg came out at 9 in experiment [1] (probe 2 1 mM 0.5 h vs probe 4) and 8 in experiment [2] (probe 2 1 mM 0.5 h vs probe 4). Also, the values for the competition ratioavg in experiment [1] (probe 2 vs probe 2+10x probe 4) and in experiment [2] (probe 2 vs probe 2+10x probe 4) were 4 and 3, respectively.
